Test results published in patent US20220313621A1, “FORMULATIONS OF CANNABINOIDS FOR THE TREATMENT OF PSORIASIS” (priority 2017, published 2022).

What was measured:
[1] = Discoloration of CBD solutions; format: physicochemical; conditions: end of day 1
Excerpt: The CBD2 material dissolved like the CBD1 therefore the CBD2 is CBD without the discoloration properties of CBD1.

[2] = test system: rats; conditions: 5 mg/kg, i.v., once daily for 4 weeks; cited from earlier work
[3] = test system: anandamide; conditions: rat basophilic leukemia cells; cited from earlier work
[4] = test system: sensitized guinea-pigs; conditions: 1 mg/kg i.v.; cited from earlier work
[5] = in ethanol; cited from earlier work
[6] = Solubility of CBD in the Receptor Fluid; format: physicochemical; conditions: not told, aqueous with cosolvent or surfactant or cyclodextrin; PBS with 0.01 wt % NaN3, 4 wt % hydroxypropyl-cyclodextrin, 1 wt % Brij O20
[7] = Solubility of CBD in solvents and excipients; format: physicochemical
Description: First, the solubility of cannabidiol (CBD) was assessed. The powder looked granulated under the microscope. […] The conclusions from the solubility studies were that OA and IPA were very good solvents and it was surprising that IPA was so much better than ethanol.
Solubility studies: CBD dissolved at the 10% level in AE and barely 9.5% in IPM. Further exploration was not conducted due to the small amount of drug API available for non-GMP work. CBD is soluble greater than 10% but probably not in excess of 20%, as the time to dissolve additional CBD was taking considerably longer.

[8] = target: T1, human vanilloid receptor type 1 (VR1) (Homo sapiens, UniProt Q8NER1); conditions: HEK-hVR1 transfected cells; cited from earlier work
T1 construct: expressed in transfected cells; host or cells: HEK cells transfected with hVR1 (HEK-hVR1)
T1 sequence (Q8NER1 whole entry): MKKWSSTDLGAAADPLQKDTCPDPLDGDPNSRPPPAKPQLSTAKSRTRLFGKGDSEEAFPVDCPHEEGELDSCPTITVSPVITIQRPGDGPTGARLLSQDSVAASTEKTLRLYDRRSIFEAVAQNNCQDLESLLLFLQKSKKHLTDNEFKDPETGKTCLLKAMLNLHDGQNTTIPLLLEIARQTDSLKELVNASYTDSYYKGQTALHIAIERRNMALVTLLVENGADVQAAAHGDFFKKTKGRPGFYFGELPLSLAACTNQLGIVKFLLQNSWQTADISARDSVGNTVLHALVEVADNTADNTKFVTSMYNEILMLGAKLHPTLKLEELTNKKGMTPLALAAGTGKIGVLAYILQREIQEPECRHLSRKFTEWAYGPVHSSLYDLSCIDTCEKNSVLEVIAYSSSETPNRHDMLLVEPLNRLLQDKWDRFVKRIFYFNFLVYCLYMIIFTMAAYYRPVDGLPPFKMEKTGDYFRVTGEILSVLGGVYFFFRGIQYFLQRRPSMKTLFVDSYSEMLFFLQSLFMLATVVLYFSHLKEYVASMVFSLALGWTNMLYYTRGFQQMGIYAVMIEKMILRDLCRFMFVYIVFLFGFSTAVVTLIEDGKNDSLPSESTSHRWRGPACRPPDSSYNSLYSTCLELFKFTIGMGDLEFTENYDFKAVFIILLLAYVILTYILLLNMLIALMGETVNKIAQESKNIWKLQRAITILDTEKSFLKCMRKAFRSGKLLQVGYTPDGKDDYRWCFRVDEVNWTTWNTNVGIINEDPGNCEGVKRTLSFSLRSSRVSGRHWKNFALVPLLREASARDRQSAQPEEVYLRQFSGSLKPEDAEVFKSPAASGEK

C=C(C)[C@@H]1CCC(C)=C[C@H]1c1c(O)cc(CCCCC)cc1O [CBD1]
discoloration of solution [1]: coloured by the end of the day

C=C(C)[C@@H]1CCC(C)=C[C@H]1c1c(O)cc(CCCCC)cc1O [CBD2]
discoloration of solution [1]: None of the CBD2 solutions were coloured at the end of day 1

C=C(C)C1CCC(C)=CC1c1c(O)cc(CCCCC)cc1O (stereo not drawn) [CBD, 2-[3-methyl-6-(1-methylethenyl)-2-cyclohexen-1-yl]-5-pentyl-1,3-benzenediol]
cardiac inflammation produced by doxorubicin [2]: attenuated cardiac inflammation produced by doxorubicin | inhibition of anandamide [3]: inhibit anandamide | ovalbumin-induced airway obstruction [4]: attenuated ovalbumin-induced airway obstruction | reported solubility [5]: 3.5% | solubility [6]: > 50 µg/mL | solubility (weight to weight) ([7]; in ethanol): 6-7% | solubility (weight to weight) ([7]; in hexamethyldisiloxane (HDS)): 3-4% | solubility (weight to weight) ([7]; in isopropyl alcohol (IPA)): greater than 14% | solubility ([7]; in isopropyl myristate (IPM)): ~9.5% | solubility (weight to weight) ([7]; in mineral oil): 3-4% | solubility (weight to weight) ([7]; in oleyl alcohol (OA)): greater than 8% | solubility (weight to weight) ([7]; in propylene glycol (PG)): 6-7% | stimulation of human vanilloid receptor type 1 (VR1) [8]: maximum effect similar in efficacy to that of capsaicin
